Test results published in PubChem BioAssay (NCI).
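Cells were grown in 96-well plates and exposed to each compound for 48 hours at five concentrations; endpoints were interpolated linearly between bracketing concentrations, or set to the highest concentration if not reached. Abbreviation: GI50, concentration required for 50% inhibition of growth. TGI denotes the concentration required for complete inhibition of growth.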

Legend:
Assay in all cases: DTP human tumour cell line panel, 48 h
[1] = system: IGROV1 ovarian
[2] = system: NCI-H23 lung
[3] = system: HS 578T breast
[4] = system: A549 NSCLC
[5] = system: CAKI-1 renal
[6] = system: ACHN renal
[7] = system: EKVX NSCLC
[8] = system: SR leukemia
[9] = system: TK-10 renal
[10] = system: HL-60(TB) leukemia
[11] = system: HOP-62 NSCLC
[12] = system: HT29 colon
[13] = system: PC-3 prostate
[14] = system: T-47D breast
[15] = system: OVCAR-5 ovarian
[16] = system: A498 renal
[17] = system: OVCAR-3 ovarian
[18] = system: SK-OV-3 ovarian
[19] = system: M14 melanoma
[20] = system: U251 CNS
[21] = system: SF-295 CNS
[22] = system: UO-31 renal
[23] = system: SNB-75 CNS
[24] = system: CCRF-CEM leukemia
[25] = system: UACC-257 melanoma
[26] = system: BT-549 breast
[27] = system: 786-0 renal
[28] = system: SK-MEL-2 melanoma
[29] = system: MDA-MB-435
[30] = system: DU-145 prostate
[31] = system: NCI-H522 lung
[32] = system: RPMI-8226 leukemia
[33] = system: NCI-H226 lung
[34] = system: HCT-116 colon
[35] = system: OVCAR-4 ovarian
[36] = system: SF-268 CNS
[37] = system: K-562 leukemia
[38] = system: SN12C renal
[39] = system: HOP-92 NSCLC
[40] = system: SF-539 CNS
[41] = system: MCF7 breast
[42] = system: MOLT-4 leukemia
[43] = system: KM12 colon
[44] = system: COLO 205 colon
[45] = system: NCI/ADR-RES ovarian
[46] = system: HCT-15 colon
[47] = system: SNB-19 CNS
[48] = system: HCC-2998 colon
[49] = system: SK-MEL-28 melanoma
[50] = system: UACC-62 melanoma
[51] = system: NCI-H460 lung
[52] = system: SK-MEL-5 melanoma
[53] = system: SW-620 colon
[54] = system: RXF 393 renal
[55] = system: LOX IMVI melanoma
[56] = system: MDA-MB-231 breast
[57] = system: OVCAR-8 ovarian
[58] = system: MALME-3M melanoma

## CC1=NN(c2nc(N)nc(COCc3nc(N)nc(N4N=C(C)CC4(C)C)n3)n2)C(C)(C)C1
[1]
  TGI: > 100 µM
[2]
  TGI: > 100 µM
[3]
  TGI: > 100 µM
[4]
  TGI: > 100 µM
[5]
  TGI: > 100 µM
[6]
  TGI: > 100 µM
[7]
  TGI: > 100 µM
[8]
  TGI: > 100 µM
[9]
  TGI: > 100 µM
[10]
  TGI: > 100 µM
[11]
  TGI: > 100 µM
[12]
  TGI: > 100 µM
[13]
  TGI: > 100 µM
[14]
  TGI: > 100 µM
[15]
  TGI: > 100 µM
[16]
  TGI: > 100 µM
[17]
  TGI: > 100 µM
[18]
  TGI: > 100 µM
[19]
  TGI: > 100 µM
[20]
  TGI: > 100 µM
[21]
  TGI: > 100 µM
[22]
  TGI: > 100 µM
[23]
  TGI: > 100 µM
[24]
  TGI: > 100 µM
[25]
  TGI: > 100 µM
[26]
  TGI: > 100 µM
[27]
  TGI: > 100 µM
[28]
  TGI: > 100 µM
[29]
  TGI: > 100 µM
[30]
  TGI: > 100 µM
[31]
  TGI: > 100 µM
[32]
  TGI: > 100 µM
[33]
  TGI: > 100 µM
[34]
  TGI: > 100 µM
[35]
  TGI: > 100 µM
[36]
  TGI: > 100 µM
[37]
  TGI: > 100 µM
[38]
  TGI: > 100 µM
[39]
  TGI: > 100 µM
[40]
  TGI: > 100 µM
[41]
  TGI: > 100 µM
[42]
  TGI: > 100 µM
[43]
  TGI: > 100 µM
[44]
  TGI: > 100 µM
[45]
  TGI: > 100 µM
[46]
  TGI: > 100 µM
[47]
  TGI: > 100 µM
[48]
  TGI: > 100 µM
[49]
  TGI: > 100 µM
[50]
  TGI: > 100 µM
[51]
  TGI: > 100 µM
[52]
  TGI: > 100 µM
[53]
  TGI: > 100 µM
[54]
  TGI: > 100 µM
[55]
  TGI: > 100 µM
[56]
  TGI: > 100 µM
[57]
  TGI: > 100 µM

## COc1cc(-c2cc(/C=C/C(=O)c3ccc(N)cc3)[nH]n2)cc(OC)c1OC
[1]
  GI50: 3.2 µM
  TGI: 10.5 µM
[2]
  GI50: 2.48 µM
  TGI: 6.79 µM
[3]
  GI50: 4.33 µM
  TGI: > 100 µM
[4]
  GI50: 2.08 µM
  TGI: 7.02 µM
[6]
  GI50: 1.61 µM
  TGI: 3.67 µM
[8]
  GI50: 0.326 µM
  TGI: 2.75 µM
[9]
  GI50: 4.84 µM
  TGI: 17.5 µM
[10]
  GI50: 1.74 µM
  TGI: 10.8 µM
[11]
  GI50: 1.77 µM
  TGI: 3.92 µM
[12]
  GI50: 1.85 µM
  TGI: 4.82 µM
[13]
  GI50: 2.21 µM
  TGI: 10.4 µM
[14]
  GI50: 1.42 µM
  TGI: 4.3 µM
[15]
  GI50: 1.78 µM
  TGI: 3.75 µM
[16]
  GI50: 1.64 µM
  TGI: 4.33 µM
[17]
  GI50: 1.57 µM
  TGI: 3.37 µM
[18]
  GI50: 2.99 µM
  TGI: 8.32 µM
[19]
  GI50: 1.83 µM
  TGI: 3.86 µM
[20]
  GI50: 1.42 µM
  TGI: 2.77 µM
[21]
  GI50: 2.55 µM
  TGI: 10.9 µM
[22]
  GI50: 1.36 µM
  TGI: 2.86 µM
[58]
  GI50: 2.05 µM
  TGI: 4.71 µM
[24]
  GI50: 0.556 µM
  TGI: 4.17 µM
[25]
  GI50: 1.87 µM
  TGI: 4.02 µM
[26]
  GI50: 1.38 µM
  TGI: 2.82 µM
[27]
  GI50: 2.04 µM
  TGI: 6.49 µM
[28]
  GI50: 2.85 µM
  TGI: 7.53 µM
[29]
  GI50: 1.66 µM
  TGI: 3.21 µM
[30]
  GI50: 1.65 µM
  TGI: 4.05 µM
[31]
  GI50: 1.62 µM
  TGI: 3.99 µM
[32]
  GI50: 0.479 µM
  TGI: 2.77 µM
[33]
  GI50: 1.71 µM
  TGI: 3.51 µM
[34]
  GI50: 1.1 µM
  TGI: 2.61 µM
[35]
  GI50: 1.4 µM
  TGI: 5.44 µM
[36]
  GI50: 1.69 µM
  TGI: 3.93 µM
[37]
  GI50: 0.726 µM
  TGI: 23.6 µM
[38]
  GI50: 1.86 µM
  TGI: 4.52 µM
[39]
  GI50: 3.68 µM
  TGI: 27.6 µM
[40]
  GI50: 1.3 µM
  TGI: 2.66 µM
[41]
  GI50: 1.5 µM
  TGI: 5.42 µM
[42]
  GI50: 1.91 µM
  TGI: 8.51 µM
[43]
  GI50: 1.14 µM
  TGI: 2.88 µM
[44]
  GI50: 1.74 µM
  TGI: 3.34 µM
[45]
  GI50: 3.8 µM
  TGI: 65.8 µM
[46]
  GI50: 1.37 µM
  TGI: 6.76 µM
[47]
  GI50: 2.34 µM
  TGI: 9.98 µM
[48]
  GI50: 2.01 µM
  TGI: 3.63 µM
[49]
  GI50: 1.86 µM
  TGI: 4.08 µM
[50]
  GI50: 1.7 µM
  TGI: 3.58 µM
[51]
  GI50: 1.8 µM
  TGI: 5.1 µM
[52]
  GI50: 1.65 µM
  TGI: 3.06 µM
[53]
  GI50: 2.05 µM
  TGI: 6.37 µM
[54]
  GI50: 1.35 µM
  TGI: 3.24 µM
[55]
  GI50: 1.6 µM
  TGI: 3.28 µM
[56]
  GI50: 2.06 µM
  TGI: 12.2 µM
[57]
  GI50: 2.39 µM
  TGI: 9.76 µM
